Assay results taken from patent US12048685B2, “Transient receptor potential cation channel subfamily m member 8 (TRPM8) antagonists and methods of use” (Ora, Inc., priority 2015, dated 2024).
Counter-ions that a name gives are not always drawn.

Legend:
TRPM-8 channels = molecular target: T1, TRPM-8 channels (Homo sapiens, UniProt Q7Z2W7); test: Post-menthol treatment symptoms (Drop Discomfort) after dosing, menthol-containing eyedrop (ROHTO Hydra); format: in vivo
T1 construct: from tissue; host or cells: eye (ocular surface) of living human subjects
T1 sequence (Q7Z2W7 whole entry): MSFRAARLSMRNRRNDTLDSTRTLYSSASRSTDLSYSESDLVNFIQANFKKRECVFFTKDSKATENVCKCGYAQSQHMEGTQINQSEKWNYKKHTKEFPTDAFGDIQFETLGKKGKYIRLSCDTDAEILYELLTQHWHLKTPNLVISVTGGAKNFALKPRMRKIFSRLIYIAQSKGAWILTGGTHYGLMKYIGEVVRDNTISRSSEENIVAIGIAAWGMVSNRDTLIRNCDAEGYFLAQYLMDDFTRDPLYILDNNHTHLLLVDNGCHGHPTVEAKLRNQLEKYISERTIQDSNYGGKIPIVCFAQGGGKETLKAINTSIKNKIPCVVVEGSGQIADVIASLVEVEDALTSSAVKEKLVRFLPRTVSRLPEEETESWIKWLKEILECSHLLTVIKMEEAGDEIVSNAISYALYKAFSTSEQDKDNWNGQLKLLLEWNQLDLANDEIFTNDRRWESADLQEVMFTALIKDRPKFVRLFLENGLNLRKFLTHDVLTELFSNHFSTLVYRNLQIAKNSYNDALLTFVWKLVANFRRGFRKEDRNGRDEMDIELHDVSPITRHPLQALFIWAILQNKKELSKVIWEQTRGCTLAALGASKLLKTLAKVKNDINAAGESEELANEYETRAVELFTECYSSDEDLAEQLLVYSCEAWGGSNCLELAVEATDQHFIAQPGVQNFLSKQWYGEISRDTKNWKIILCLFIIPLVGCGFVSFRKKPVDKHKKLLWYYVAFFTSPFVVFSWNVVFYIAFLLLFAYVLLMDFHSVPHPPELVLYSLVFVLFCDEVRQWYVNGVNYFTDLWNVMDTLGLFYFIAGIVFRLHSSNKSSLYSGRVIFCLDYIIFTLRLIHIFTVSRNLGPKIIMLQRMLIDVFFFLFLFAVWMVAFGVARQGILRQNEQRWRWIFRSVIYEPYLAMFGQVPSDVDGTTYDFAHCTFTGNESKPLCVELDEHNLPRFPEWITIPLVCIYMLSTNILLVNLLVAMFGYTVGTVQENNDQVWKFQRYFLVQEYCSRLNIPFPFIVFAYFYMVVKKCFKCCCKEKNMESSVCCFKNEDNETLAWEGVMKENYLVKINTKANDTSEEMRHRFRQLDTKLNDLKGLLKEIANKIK
Source text: Post-dose, exposure to Menthol (ROHTO Hydra), as well as to an adverse environment (CAESM), was used to elicit symptomology in 3 patients with healthy eyes. Validated symptom scales were used to collect levels of discomfort secondary to the exposures (Ora Calibra™ Ocular Discomfort Questionnaire, Drop Comfort Questionnaire). A summary of the findings is presented below. The effect of topical menthol application after dosing with Compound I or placebo was examined. After dosing with Compound I or placebo, 1 drop menthol-containing OTC eyedrop were administered bilaterally (ROHTO Hydra). Menthol is known to act upon TRPM-8 channels, effectively causing neural activity similar in nature to exposure to cold temperature. As such, menthol was used to induce a “cooling” symptom. […] Baseline (pre-menthol) symptoms were “0” for each eye, for all 3 subjects (data not shown).

[1] = Ocular discomfort on exposure to a Controlled Adverse Environment (CAE); format: in vivo, human; settings: CAE for 25 minutes, asked every 5 minutes, p<0.01, FIGS. 4A and B
Method: (§1) A series of experiments were carried out assessing the clinical signs and symptoms of dry eye disease or severe dry eye disease using a commercially available TRPM8 antagonist, N-(2-Aminoethyl)-N-(4-(benzyloxy)-3-methoxybenzyl)thiophene-2-carboxamide hydrochloride, N-(2-Aminoethyl)-N-[[3-methoxy-4-(phenylmethoxy)phenyl]methyl]-2-thiophenecarboxamide hydrochloride (Sigma Aldrich M8-B hydrochloride (SML0893)), shown below as Compound I, at a concentration of 0.1% (vs placebo), administered unilaterally.
(§2) Post-dose, exposure to Menthol (ROHTO Hydra), as well as to an adverse environment (CAESM), was used to elicit symptomology in 3 patients with healthy eyes. Validated symptom scales were used to collect levels of discomfort secondary to the exposures (Ora Calibra™ Ocular Discomfort Questionnaire, Drop Comfort Questionnaire). A summary of the findings is presented below.
The effect of CAE exposure after dosing with Compound I or placebo was examined. After dosing with Compound I or placebo, subjects were exposed to a Controlled Adverse Environment (CAE) for 25 minutes, in order to elicit symptomology similar in nature to dry eye symptoms. An Ocular Discomfort Questionnaire (0-4 scale) was asked every 5 minutes.

[2] = Corneal sensitivity measured by Cochet Bonnet after topical dosing; format: in vivo, human
Method: as §1, §2
In a first set of experiments, the effect of Compound I on corneal sensitivity was examined. Subjects (shown by initials E-A, KJL, M-C) were dosed with 20 ul of Compound I (0.1%) or a placebo (BSS).

[3] = Ocular discomfort on exposure to Turbo-CAE after CAE (severe dry eye symptoms); format: in vivo, human; settings: 15 minutes of Turbo-CAE after 25-minute CAE, p<0.01, FIGS. 5A and B
Method: as §1, §2
Next, the effect of Turbo-CAE exposure after dosing with Compound I or placebo was examined. After 25-minute Controlled Adverse Environment (CAE) exposure, subjects were exposed to 15 minutes of Turbo-CAE, in order to elicit symptomology similar in nature to severe dry eye symptoms. An Ocular Discomfort Questionnaire (0-4 scale) was asked every 5 minutes.

Balb/C mice = settings: 15 minutes and 24 hours post TRPM8 antagonist dose (0.01%, 0.05%, 0.10%), immediately post menthol dose, water control, FIG. 6
Method: Behavioral endpoints, e.g. blinking for balb/cs nice, was tested. […] Treatment of the mice with water was used as a control. TRPM8 antagonist was used at concentrations of 0.01%, 0.05% and 0.10%.

Compound	action of menthol (cooling symptom) (TRPM-8 channels; 0.1% dosed before 1 drop menthol-containing OTC eyedrop bilaterally, FIGS. 3A and B)	subject-reported symptom scores (Drop Discomfort, 0-10 scale) vs placebo (TRPM-8 channels; post-menthol, treated eye vs placebo eye, p<0.01, 3 subjects)	symptom scores (Ocular Discomfort Questionnaire, 0-4 scale) vs placebo [1]	effect on corneal sensitivity ([2]; 20 ul of 0.1%, unilateral, vs placebo (BSS), 3 subjects with healthy eyes, Cochet Bonnet, FIG. 2)	decrease in sensitivity ([2]; Subject, 70 mm to 65 mm, 20 ul of 0.1%) [mm]	changes in sensitivity ([2]; Subjects E-A and M-C, 20 ul of 0.1%)	difference in corneal sensitivity pre- to post-dose ([2]; p=0.42, 3 subjects)	symptom scores (Ocular Discomfort Questionnaire, 0-4 scale) vs placebo [3]	blink rate per minute (Balb/C mice)
COc1cc(CN(CCN)C(=O)c2cccs2)ccc1OCc1ccccc1 [Compound I, N-(2-Aminoethyl)-N-(4-(benzyloxy)-3-methoxybenzyl)thiophene-2-carboxamide hydrochloride]	effectively block the action of menthol	significantly lower symptom scores than placebo	significantly lower symptom scores than placebo	minimal effect	5	no detectable changes	No significant difference	significantly lower symptom scores than placebo	–
N-(2-Aminoethyl)-N-(4-(benzyloxy)-3-methoxybenzyl)thiophene-2-carboxamide hydrochloride [Compound I]	–	–	–	–	–	–	–	–	reproducibly blocked
CC1CCC(C(C)C)C(O)C1 (stereo not shown) [menthol]	–	–	–	–	–	–	–	–	increase in blink rate
